By IC50 is commonly meant the concentration that inhibits the measured activity by half.

Molecules are shown by their SMILES.

In assay [1] the target is Farnesyl-protein transferase (FTase) (UniProt P49354+P49356). Put plainly: In vitro inhibition of Ras farnesyl transferase. It counts as biochemical. The following applies: Ras-CVLS at 3.5 μM, 0.25 μM [3H]FPP; partially purified bovine or recombinant human enzyme; concentration giving 50% inhibition of FTase; read-out: Inhibition of RAS farnesylation, IC50. How it is done: Farnesyl-protein transferase (FTase) from bovine brain was chromatographed on DEAE-Sephacel (Pharmacia, 0-0.8 M NaCl gradient elution), N-octyl agarose (Sigma, 0-0.6 M NaCl gradient elution), and a mono Q HPLC column (Pharmacia, 0-0.3 M NaCl gradient). Ras-CVLS at 3.5 μM, 0.25 μM [^3H]FPP, and the indicated compounds were incubated with either a partially purified bovine enzyme preparation or a recombinant human enzyme preparation. The recombinant human enzyme was prepared as described in Omer, C. A., Kral, A. M., Diehl, R. E., Prendergast, G. C., Powers, S., Allen, C. M., Gibbs, J. B. and Kohl, N. E. (1993) Biochemistry 32:5167-5176. The Frase data presented below in Table 1 reflects the ability of the test compound to inhibit RAS farnesylation in vitro, as described in Pompliano, et al., Biochemistry 31, 3800 (1992).

In assay [2] the test system is Ras farnesylation in the v-ras cell line (viral Ha-ras p21). As to the kind of experiment: cells. It counts as cell-based. Particulars: v-ras cell line expressing viral Ha-ras p21; <1 = >50% inhibition at a 1 μM concentration. How it is done:
The cell line used in this assay was the v-ras line, which expressed viral Ha-ras p21. The assay was performed essentially as described in DeClue, J. E. et. al., Cancer Research 51, 712-717, (1991). Cells in 10 cm dishes at 50-75% confluency were treated with the test compound (final concentration of solvent, methanol or dimethyl sulfoxide, was 0.1%). After 4 hours at 37° C., the cells were labelled in 3 ml methionine-free DMEM supplemeted with 10% regular DMEM, 2% fetal bovine serum and 400 μCi[^35S]methionine (1000 Ci/mmol). After an additional 20 hours, the cells were lysed in 1 ml lysis buffer (1% NP40/20 mM HEPES, pH 7.5/5 mM MgCl2/1 mM DTT/10 μg/ml aprotinen/2 μg/ml leupeptin/2 μg/ml antipain/0.5 mM PMSF) and the lysates cleared by centrifugation at 100,000×g for 45 min. Aliquots of lysates containing equal numbers of acid-precipitable counts were brought to 1 ml with IP buffer (lysis buffer lacking DTF) and immunoprecipitated with the ras-specific monoclonal antibody Y13-259 (Furth, M. E. et. al., J. Virol. 43, 294-304, (1982)). Following a 2 hour antibody incubation at 4° C., 200 μl of a 25% suspension of protein A-Sepharose coated with rabbit anti rat IgG was added for 45 min. The immunoprecipitates were washed four times with IP buffer ([…], pH 7.5/1 mM EDTA/1% Triton X-100.0.5% deoxycholate/0.1%/SDS/0.1 M NaCl) boiled in SDS-PAGE sample buffer and loaded on 13% acrylamide gels. When the dye front reached the bottom, the gel was fixed, soaked in Enlightening, dried and autoradiographed. The intensities of the bands corresponding to farnesylated and nonfarnesylated ras proteins were compared to determine the percent inhibition of farnesyl transfer to protein.

As to `CC[C@@H]1CCN(C[C@@H](NC[C@@H](N)CS)[C@@H](C)CC)[C@@H]1C(=O)N[C@@H](CCSC)C(=O)O` [Compound 8, N-[2(S)-(2(R)-amino-3-mercaptopropylamino)-3(S)-methylpentyl]-cis-3-ethyl-prolyl-methionine], in assay [1], the IC50 amounted to 4.2 nM.

With `CCC(C)C(CN1CCCCC1C(=O)NC1CCOC1=O)NCC(N)CS` [Compound 17, N-[2(S)-(2(R)-amino-3-mercaptopropylamino)-3-methylpentyl]-2(S)-pipecolyl-homoserine lactone], in assay [1], the IC50 worked out at 24000 nM.

In the case of `CCC(C)C(NCC(N)CS)C(=O)N1CCCC1C(=O)NC1CCOC1=O` [Compound 19, N-[2(R)-amino-3-mercaptopropyl]-isoleucyl-prolyl-homserine lactone], in assay [1], the IC50 turned out to be 10000 nM.

As to `CCC(C)C(NCC(N)CS)C(=O)N1CCCCC1C(=O)NC1CCOC1=O` [Compound 21, N-[2(R)-amino-3-mercaptopropyl]-isoleucyl-2(S)-pipecolyl-homserine lactone], the IC50 in assay [1] came out at 25000 nM.

Regarding `CCC(C)[C@@H](CN1Cc2ccccc2C[C@H]1C(=O)N[C@@H](CCSC)C(=O)O)NC[C@@H](N)CS` (stereo partly drawn) [Compound 2, N-[N′-[2(S)-(2(R)-amino-3-mercaptopropylamino)-3(S)-methylpentyl]-1,2,3,4-tetrahydro-3(S)-isoquinolinecarboxyl]-methionine], the concentration for half-maximal inhibition (IC50) in assay [1] is 0.39 nM.

On to `CCC(C)[C@@H](CN1Cc2ccccc2C[C@H]1C(=O)N[C@@H](CCSC)C(=O)OC)NC[C@@H](N)CS` (stereo partly drawn) [Compound 1, N-[N′-[2(S)-(2(R)-amino-3-mercaptopropylamino)-3(S)-methylpentyl]-1,2,3,4-tetrahydro-3(S)-isoquinolinecarboxyl]-methionine methyl ester], for which the IC50 in assay [1] was 680 nM; in assay [2], 250 nM.

With `CC[C@H](C)[C@@H](CN1CCC[C@H]1C(=O)N[C@@H](CCSC)C(=O)OC)NC[C@@H](N)CS` [Compound 3, N-[2(S)-(2(R)-amino-3-mercaptopropylamino)-3(S)-methylpentyl]-prolyl-methionine methyl ester], the figures for the IC50 in assay [1] and in assay [2] were 100 nM and 250 nM, respectively.

Consider `CC[C@H](C)[C@@H](CN1CCC[C@H]1C(=O)N[C@@H](CCO)C(=O)O)NC[C@@H](N)CS` [Compound 16, N-[2(S)-(2(R)-amino-3-mercaptopropylamino)-3(S)-methylpentyl]-prolyl-homoserine], for which the IC50 in assay [1] came to 45 nM.

Turning to `CC[C@@H]1CCN(C[C@@H](NC[C@@H](N)CS)[C@@H](C)CC)[C@@H]1C(=O)N[C@@H](CCSC)C(=O)OC` [Compound 7, N-[2(S)-(2(R)-amino-3-mercaptopropylamino)-3(S)-methylpentyl]-cis-3-ethyl-prolyl-methionine methyl ester], the values for the IC50 in assay [1] and in assay [2] were 2300 nM and 1000 nM, respectively.

Regarding `CC[C@H]1CCN(C[C@@H](NC[C@@H](N)CS)[C@@H](C)CC)[C@@H]1C(=O)N[C@@H](CCSC)C(=O)O` [Compound 6, N-[2(S)-(2(R)-amino-3-mercaptopropylamino)-3(S)-methylpentyl]-trans-3-ethyl-prolyl-methionine], the IC50 in assay [1] came to 10 nM.

Turning to `CCC(C)C(NCC(N)CS)C(=O)N1CCCCC1C(=O)NC(CCO)C(=O)O` [Compound 22, N-[2(R)-amino-3-mercaptopropyl]-isoleucyl-2(S)-pipecolyl-homserine], the IC50 in assay [1] is 340 nM.

As to `CCC(C)[C@@H](CN1Cc2ccccc2C[C@H]1C(=O)N[C@@H](CCO)C(=O)O)NC[C@@H](N)CS` (stereo partly drawn) [Compound 14, N-[N′-[2(S)-(2(R)-amino-3-mercaptopropylamino)-3(S)-methylpentyl]-1,2,3,4-tetrahydro-3(S)-isoquinolinecarboxyl]-homoserine], in assay [1], the half-inhibitory concentration (IC50) was 7.6 nM.

Turning to `CCC(C)C(CN1CCCC1C(=O)NC(CCS(C)(=O)=O)C(=O)O)NCC(N)CS` [Compound 10, N-[2(S)-(2(R)-amino-3-mercaptopropylamino)-3(S)-methylpentyl]-prolyl-methionine sulfone], the half-maximal inhibitory concentration (IC50) in assay [1] is 35 nM.

With `CCC(C)C(CN1CCCC1C(=O)NC(CCS(C)(=O)=O)C(=O)OC)N(C)CC(N)CS` [Compound 25, N-[2(S)-(2(R)-amino-3-(mercaptopropyl)methylamino)-3(S)-methylpentyl]-prolyl-methionine sulfone methyl ester], in assay [1], the IC50 was found to be 10000 nM.

`CC[C@H](C)[C@@H](CN1CCC[C@H]1C(=O)N[C@@H](CCSC)C(=O)O)NC[C@@H](N)CS` [Compound 4, N-[2(S)-(2(R)-amino-3-mercaptopropylamino)-3(S)-methylpentyl]-prolyl-methionine]: the IC50 in assay [1] was 17 nM; in assay [2], 10000 nM.

`CCC(C)[C@@H](CN1Cc2ccccc2C[C@H]1C(=O)N[C@H]1CCOC1=O)NC[C@@H](N)CS` (stereo partly drawn) [Compound 13, N-[N′-[2(S)-(2(R)-amino-3-mercaptopropylamino)-3(S)-methylpentyl]-1,2,3,4-tetrahydro-3(S)-isoquinolinecarboxyl]-homoserine lactone]: the IC50 in assay [1] is 390 nM; in assay [2], more than 10000 nM.

For `CC[C@H]1CCN(C[C@@H](NC[C@@H](N)CS)[C@@H](C)CC)[C@@H]1C(=O)N[C@@H](CCSC)C(=O)OC` [Compound 5, N-[2(S)-(2(R)-amino-3-mercaptopropylamino)-3(S)-methylpentyl]-trans-3-ethyl-prolyl-methionine methyl ester], the figures for the IC50 in assay [1] and in assay [2] were 520 nM and less than 1000 nM, respectively.

Take `CCC(C)C(CN1CCCC1C(=O)NC(CCS(C)(=O)=O)C(=O)O)N(C)CC(N)CS` [Compound 26, N-[2(S)-(2(R)-amino-3-(mercaptopropyl)methylamino)-3(S)-methylpentyl]-prolyl-methionine sulfone]: the IC50 in assay [1] came out at 56 nM.

Consider `CCC(C)C(CN1CCCC1C(=O)NC(CCSC)C(=O)OC)N(C)CC(N)CS` [Compound 23, N-[2(S)-(2(R)-amino-3-(mercaptopropyl)methylamino)-3(S)-methylpentyl]-prolyl-methionine methyl ester], for which the values for the IC50 in assay [1] and in assay [2] were 1200 nM and less than 1000 nM, respectively.

Take `CC[C@H](C)[C@@H](CN1CCC[C@H]1C(=O)N[C@@H](CCS(C)(=O)=O)C(=O)OC)NC[C@@H](N)CS` [Compound 9, N-[2(S)-(2(R)-amino-3-mercaptopropylamino)-3(S)-methylpentyl]-prolyl-methionine sulfone methyl ester]: the IC50 in assay [1] was 950 nM; in assay [2], more than 10000 nM.

`CCC(C)C(CN1CCCC1C(=O)NC(CCSC)C(=O)O)N(C)CC(N)CS` [Compound 24, N-[2(S)-(2(R)-amino-3-(mercaptopropyl)methylamino)-3(S)-methylpentyl]-prolyl-methionine]: the IC50 in assay [1] stood at 6 nM.

With `CCC(C)C(CN1CCCC1C(=O)NC1CCOC1=O)NCC(N)CS` [Compound 15, N-[2(S)-(2(R)-amino-3-mercaptopropylamino)-3(S)-methylpentyl]-prolyl-homoserine lactone], the values for the IC50 in assay [1] and in assay [2] were 1400 nM and 50000 nM, respectively.

For `CCC(C)C(NCC(N)CS)C(=O)N1CCCC1C(=O)NC(CCO)C(=O)O` [Compound 20, N-[2(R)-amino-3-mercaptopropyl]-isoleucyl-prolyl-homserine], in assay [1], the IC50 amounted to 350 nM.
